From patent publication US20250275978A1 (Cardiff Oncology, Inc., priority 2024, published 2025)
Several values for one entry are separate records, joined by “and”; a condition that tells them apart may be missing. Identical values can stand only once.

Experiments:
[1] = system: RAS^WT CRC patient-derived xenograft (PDX) models; test: Example 1: antitumor activity in RAS^WT CRC PDX models, 18 days; assay type: in vivo, nude mice
Experimental: Twenty RAS^WT CRC PDXs were selected and engrafted in nude mice. […] Tumor volume change from baseline (TVC) was calculated as 100%×(Vt−Vo)/Vo and tumor growth inhibition (TGI) as 100%×(TVCcontrol−TVCtreated)/TVCcontrol. Tumor regression was defined as TVCD18<0 and tumor stasis […].

[2] = system: RAS^WT colorectal cancer patient derived xenograft (PDX) models; test: Example 2: antitumor activity in RAS^WT CRC PDX models, 18-19 days; assay type: in vivo, mice
Experimental: Tumor volumes (TV) were measured twice a week, and % tumor volume change (TVC) from baseline was calculated as follows: (TVi/TV0−1)×100. Tumor stasis defined as TVC between 0 and 20%, and tumor regression as TVC less than 0% at last measurement. Results are presented as mean±SEM.

[3] = system: panel of 63 kinases; details: low or no activity; cited from earlier work
[4] = system: panel of 296 kinases, including other PLK members; details: cited from earlier work
[5] = system: cell lines, both from solid as well as hematologic tumors; details: large number of cell lines; cited from earlier work
[6] = system: AML cell lines; details: cited from earlier work
[7] = molecular target: T1, CYP1A2 (Homo sapiens, UniProt P05177); details: human liver microsomes; cited from earlier work
T1 construct: was investigated using human liver microsomes; from tissue; host or cells: human liver microsomes
T1 sequence (P05177 1-516): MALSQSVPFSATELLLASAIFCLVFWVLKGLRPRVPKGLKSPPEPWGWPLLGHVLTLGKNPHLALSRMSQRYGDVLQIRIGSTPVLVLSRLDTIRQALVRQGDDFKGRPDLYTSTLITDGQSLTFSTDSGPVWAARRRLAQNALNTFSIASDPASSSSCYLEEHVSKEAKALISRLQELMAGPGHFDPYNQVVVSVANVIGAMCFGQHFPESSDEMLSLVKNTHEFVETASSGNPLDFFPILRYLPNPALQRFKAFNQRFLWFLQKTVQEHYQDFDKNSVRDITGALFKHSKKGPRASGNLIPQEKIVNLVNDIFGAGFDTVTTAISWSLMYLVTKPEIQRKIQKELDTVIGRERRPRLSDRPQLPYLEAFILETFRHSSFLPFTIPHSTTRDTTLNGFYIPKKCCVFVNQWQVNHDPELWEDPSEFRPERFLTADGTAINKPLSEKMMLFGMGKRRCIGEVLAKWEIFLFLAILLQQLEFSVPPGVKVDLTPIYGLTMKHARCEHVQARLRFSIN

[8] = rodent and nonrodent species; cited from earlier work
[9] = mice; cited from earlier work
[10] = system: patients with advanced/metastatic solid tumors; details: cited from earlier work
[11] = 6 PDXs with acquired resistance to cetuximab
[12] = 7 PDXs with intrinsic resistance to cetuximab

SMILES: CN1CCN(c2ccc(OC(F)(F)F)c(Nc3ncc4c(n3)-c3c(c(C(N)=O)nn3CCO)CC4)c2)CC1 [onvansertib, 1-(2-hydroxyethyl)-8-{[5-(4-methylpiperazin-1-yl)-2-(trifluoromethoxy)phenyl]amino}-4,5-dihydro-1H-pyrazolo[4,3-h]quinazoline-3-carboxamide]
- PDXs with potent anti-tumor activity (tumor regression or tumor stasis) ([1]; 20 PDXs, stasis 0≤TVCD18<100, 85%): 17 out of 20
- median TGI on Day 18 ([1]; CetuxR PDXs, IQR 74-124): 108
- median TGI on Day 18 ([1]; CetuxS PDXs, IQR 76-103): 102
- PDXs with tumor regression (TVCD18<0) ([1]; all 20 PDXs, Day 18): 11 PDXs
- PDXs with tumor stasis (0≤TVCD18<100) ([1]; all 20 PDXs, Day 18): 6 PDXs
- models with tumor growth inhibition [2, 11]: one
- models with tumor stasis or regression [2, 11]: 4/6
- models with tumor growth inhibition ([2]; 7 PDXs sensitive to cetuximab): two
- models with tumor stasis or regression ([2]; 7 PDXs sensitive to cetuximab, stasis TVC 0-20%): five and 5/7
- models with tumor growth inhibition [2, 12]: two
- models with tumor stasis or regression [2, 12]: 5/7
- models with potent antitumor activity ([2]; 13 PDX models resistant to cetuximab, 69%): 9/13
- models with tumor regression ([2]; all 20 models): 11 models
- models with tumor stasis ([2]; all 20 models, TVC between 0 and 20%): 3 models
- IC50 [3]: > 500 nM
- Specificity for PLK1 among a panel of 296 kinases [4]: high specificity
- Activity in proliferation assays [5]: low nanomolar activity
- Inhibition of cell proliferation [6]: nanomolar concentrations
- Inhibitory effects against CYP1A2 [7]: No significant inhibitory effects
- oral bioavailability [8]: good oral bioavailability
- concentrations relevant to achieve significant anti-tumoral activity [9]: ~1 µM
- DLTs observed ([10]; 36 mg/m^2/day, 4 patients treated): 2 DLTs
- patients who developed DLTs ([10]; 48 mg/m^2/day): 2 of 3
- DLTs at the first 3 dose levels ([10]; 6, 12, and 24 mg/m^2/day): No DLTs
- best observed treatment response ([10]; in vivo): stable disease (SD)
- maximum tolerated dose (MTD) ([10]; oral, 5 consecutive days every 3 weeks): 24 mg/m^2/day
- recovery from hematologic toxicities ([10]; reversible toxicities): ≤ 3 weeks
